{"source": "patent US20110229499A1", "about": "“METHOD FOR TREATMENT OF VASCULAR HYPERPERMEABILITY” (priority 2010, published 2011)", "test_system": "Rat lung microvascular endothelial cells", "assay": "Adherens junction damage, beta catenin immunofluorescence", "assay_type": "cell-based", "conditions": "SCF 100 ng/ml pre-treatment 1 hour", "method": "Rat lung microvascular endothelial cells were grown on fibronectin coated chamber slides in complete MCDB-3 media for 24 hours. The cells were pre-treated with SCF (100 ng/ml) for 1 hour. The cells exposed to shock serum or were transfected with caspase-3 (5 μg/ml) for 60 minutes. Caspase-3 were exposed to TransIT (10 μl/ml) for 15 minutes before exposure to the cells. The cells were washed in PBS, permeabilized with Triton X-100 and fixed with 4% paraformaldehyde. The cells were then washed in PBS, blocked with 2.5% BSA-PBS and exposed to polyclonal antibody against β-catenin overnight at 4° C. The cells were washed, mounted in an antifade-DAPI mountant and visualized utilizing a fluorescent microscope."}
{"substance": "SCF: stem cell factor, a soluble factor (protein) produced by stem cells", "values": [{"measurement": "caspase-3 mediated adherens junction disruption", "setting": "caspase-3 5 μg/ml transfected 60 minutes", "value": "did not protect"}, {"measurement": "shock serum-induced adherens junction disruption", "setting": "shock serum 60 minutes", "value": "showed protection"}]}
